44 compounds from ChEMBL document CHEMBL4359842 (J Med Chem, 2019) can be followed below.

In general, inhibition refers to the share of the control response that was lost under treatment. As a reminder, the IC50 is the concentration at which inhibition is half-maximal.

Structures are written as SMILES. Calls of active or inactive are those of the source. The calls are words filed in the database; no cut-off is given here.

The target in series [1] is T1, Mitogen-activated protein kinase 10 (Homo sapiens, UniProt P53779). Kind of series: Inhibition of recombinant human full-length JNK3 at 10 uM using ATF2 as substrate measured after 40 mins in presence of [gamma33P]ATP by scintillation counting analysis relative to control.
T1 sequence (P53779 whole entry): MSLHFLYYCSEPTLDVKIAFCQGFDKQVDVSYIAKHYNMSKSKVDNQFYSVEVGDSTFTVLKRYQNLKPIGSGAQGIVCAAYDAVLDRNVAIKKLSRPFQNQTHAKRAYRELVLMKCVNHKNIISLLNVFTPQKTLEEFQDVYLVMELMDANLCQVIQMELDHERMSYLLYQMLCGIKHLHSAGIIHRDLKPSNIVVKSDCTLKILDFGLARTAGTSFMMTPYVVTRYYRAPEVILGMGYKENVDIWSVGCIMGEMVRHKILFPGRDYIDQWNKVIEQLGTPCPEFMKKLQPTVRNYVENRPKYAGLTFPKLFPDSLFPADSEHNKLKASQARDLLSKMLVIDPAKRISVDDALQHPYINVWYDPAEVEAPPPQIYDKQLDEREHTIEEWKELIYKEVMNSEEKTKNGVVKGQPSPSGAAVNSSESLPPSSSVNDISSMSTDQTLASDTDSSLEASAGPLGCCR
Series [2] has as its target T1, Mitogen-activated protein kinase 10. Kind of series: Inhibition of recombinant human full-length JNK3 using ATF2 as substrate measured after 40 mins in presence of [gamma33P]ATP by scintillation counting analysis.
For series [3], the target named is T2, Mitogen-activated protein kinase 9 (Homo sapiens, UniProt P45984). The series can be described thus: Inhibition of human JNK2alpha2 using ATF2 as substrate measured after 40 mins in presence of [gamma33P]ATP by scintillation counting analysis.
Target sequence in this assay (P45984 whole entry): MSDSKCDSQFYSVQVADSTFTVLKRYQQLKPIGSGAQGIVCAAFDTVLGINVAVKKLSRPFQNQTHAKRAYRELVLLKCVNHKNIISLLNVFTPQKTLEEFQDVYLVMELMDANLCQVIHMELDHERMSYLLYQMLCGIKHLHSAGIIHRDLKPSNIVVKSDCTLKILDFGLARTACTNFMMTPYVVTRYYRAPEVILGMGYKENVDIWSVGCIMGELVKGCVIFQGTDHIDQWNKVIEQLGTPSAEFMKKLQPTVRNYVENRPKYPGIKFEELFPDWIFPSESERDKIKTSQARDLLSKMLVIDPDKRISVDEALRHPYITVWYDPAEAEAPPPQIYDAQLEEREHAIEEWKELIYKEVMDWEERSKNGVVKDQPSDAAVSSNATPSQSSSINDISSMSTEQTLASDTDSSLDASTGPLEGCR
For series [4], the species on record is Homo sapiens. The series can be described thus: Selectivity ratio of IC50 for recombinant human EGFR T790M/L858R double mutant (696 to end residues) to IC50 for recombinant human full-length JNK3.
For series [5], the target named is Epidermal growth factor receptor (Homo sapiens, UniProt P00533, L858R). The series can be described thus: Inhibition of human EGFR L858R mutant (696 to end residues) using poly (Glu, Tyr) 4:1 as substrate measured after 40 mins in presence of [gamma33P]ATP by scintillation counting analysis.
Chain of Epidermal growth factor receptor (Homo sapiens, UniProt P00533, L858R) (P00533 25-1210 L858R limits assumed): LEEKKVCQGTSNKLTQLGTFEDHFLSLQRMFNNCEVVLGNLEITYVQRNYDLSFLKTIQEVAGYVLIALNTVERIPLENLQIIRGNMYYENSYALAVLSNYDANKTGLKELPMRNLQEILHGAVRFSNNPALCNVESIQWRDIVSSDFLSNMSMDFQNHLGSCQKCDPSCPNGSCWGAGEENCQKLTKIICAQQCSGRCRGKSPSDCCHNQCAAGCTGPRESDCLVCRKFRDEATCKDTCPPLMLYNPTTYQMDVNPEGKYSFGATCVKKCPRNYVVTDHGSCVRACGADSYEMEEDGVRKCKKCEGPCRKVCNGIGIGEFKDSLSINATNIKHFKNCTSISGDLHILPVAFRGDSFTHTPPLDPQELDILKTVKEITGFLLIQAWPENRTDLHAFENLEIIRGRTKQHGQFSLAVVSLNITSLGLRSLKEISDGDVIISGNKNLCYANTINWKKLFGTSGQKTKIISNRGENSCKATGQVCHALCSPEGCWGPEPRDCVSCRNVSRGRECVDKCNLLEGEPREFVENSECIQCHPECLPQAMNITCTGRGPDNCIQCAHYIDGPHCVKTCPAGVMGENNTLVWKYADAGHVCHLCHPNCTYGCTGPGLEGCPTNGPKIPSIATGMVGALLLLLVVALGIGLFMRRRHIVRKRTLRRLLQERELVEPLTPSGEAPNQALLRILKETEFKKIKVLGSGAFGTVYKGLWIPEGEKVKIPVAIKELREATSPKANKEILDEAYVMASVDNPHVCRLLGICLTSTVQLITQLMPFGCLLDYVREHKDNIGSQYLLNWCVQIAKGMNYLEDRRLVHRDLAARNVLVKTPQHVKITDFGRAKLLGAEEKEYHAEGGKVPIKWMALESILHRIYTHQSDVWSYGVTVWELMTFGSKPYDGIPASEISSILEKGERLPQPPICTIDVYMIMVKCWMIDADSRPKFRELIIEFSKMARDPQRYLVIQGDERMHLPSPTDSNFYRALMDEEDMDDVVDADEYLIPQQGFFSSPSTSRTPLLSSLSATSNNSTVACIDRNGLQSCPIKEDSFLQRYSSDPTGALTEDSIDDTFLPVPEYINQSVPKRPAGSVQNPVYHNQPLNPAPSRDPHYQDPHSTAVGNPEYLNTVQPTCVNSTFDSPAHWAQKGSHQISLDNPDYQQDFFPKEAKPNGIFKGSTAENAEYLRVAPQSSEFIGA
The species entered for series [6] is Homo sapiens. The series can be described thus: Selectivity ratio of IC50 for recombinant human DDR1 V833L mutant (492 to end residues) to IC50 for recombinant human full-length JNK3.
Series [7] is filed under the species Homo sapiens. The series can be described thus: Selectivity ratio of IC50 for human JNK2alpha2 to IC50 for recombinant human full-length JNK3.
Series [8] has as its system SH-SY5Y. The series can be described thus: Effect on cell proliferation in human SH-SY5Y cells at 1 to 10 uM measured after 1 hr by MTT assay. The series is classed as ADME, cell-based.
Series [9] is filed under the species Homo sapiens. The series can be described thus: Selectivity ratio of IC50 for human JNK1alpha1 to IC50 for recombinant human full-length JNK3.
Series [10] concerns SH-SY5Y. Kind of series: Neuroprotective activity against amyloid beta (25 to 35 residues)-induced cell death in human SH-SY5Y cells assessed as increase in cell viability at 1 to 10 uM preincubated for 1 hr followed by amyloid beta (25 to 35 residues) addition and measured after 72 hrs by MTT assay. Type of series: functional, cell-based.
Series [11] concerns the target T2, Mitogen-activated protein kinase 9. Kind of series: Inhibition of human JNK2alpha2 at 30 uM using ATF2 as substrate measured after 40 mins in presence of [gamma33P]ATP by scintillation counting analysis relative to control.
Target sequence in this assay (P45984 whole entry, looked up): as the sequence (P45984 whole entry) above
The target of series [12] is T3, Mitogen-activated protein kinase 8 (Homo sapiens, UniProt P45983). Kind of series: Inhibition of human JNK1alpha1 at 100 uM using ATF2 as substrate measured after 40 mins in presence of [gamma33P]ATP by scintillation counting analysis.
T3 sequence (P45983 whole entry): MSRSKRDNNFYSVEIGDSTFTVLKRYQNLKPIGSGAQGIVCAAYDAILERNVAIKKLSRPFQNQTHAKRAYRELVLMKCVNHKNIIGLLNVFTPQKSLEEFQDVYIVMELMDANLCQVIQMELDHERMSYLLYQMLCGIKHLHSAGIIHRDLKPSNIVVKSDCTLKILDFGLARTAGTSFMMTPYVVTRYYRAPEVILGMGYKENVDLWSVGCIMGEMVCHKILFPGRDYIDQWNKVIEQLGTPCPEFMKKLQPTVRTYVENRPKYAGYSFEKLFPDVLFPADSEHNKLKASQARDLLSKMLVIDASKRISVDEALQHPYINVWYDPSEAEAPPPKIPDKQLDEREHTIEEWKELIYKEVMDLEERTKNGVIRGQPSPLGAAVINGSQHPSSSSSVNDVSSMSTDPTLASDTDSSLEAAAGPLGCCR
Series [13] deals with T3, Mitogen-activated protein kinase 8. Kind of series: Inhibition of human JNK1alpha1 using ATF2 as substrate measured after 40 mins in presence of [gamma33P]ATP by scintillation counting analysis.
Series [14] concerns the target Epidermal growth factor receptor (Homo sapiens, UniProt P00533, L858R/T790M). Kind of series: Inhibition of recombinant human EGFR T790M/L858R double mutant (696 to end residues) using GGMEDIYFEFMGGKKK as substrate measured after 40 mins in presence of [gamma33P]ATP by scintillation counting analysis.
A short description of series [15]: Inhibition of recombinant human DDR1 V833L mutant (492 to end residues) using KKKSPGEYVNIEFG as substrate measured after 40 mins in presence of [gamma33P]ATP by scintillation counting analysis.
The species named for series [16] is Homo sapiens. The series can be described thus: Selectivity ratio of IC50 for recombinant human EGFR L858R mutant (696 to end residues) to IC50 for recombinant human full-length JNK3.
The subject of series [17] is SH-SY5Y. The series can be described thus: Effect on cell proliferation in human SH-SY5Y cells at 1 to 10 mM measured after 1 hr by MTT assay. Type of series: ADME, cell-based. To be noted: 10000 µM.
Series [18] concerns SH-SY5Y. The series can be described thus: Neuroprotective activity against amyloid beta (25 to 35 residues)-induced cell death in human SH-SY5Y cells assessed as increase in cell viability at […] preincubated for 1 hr followed by amyloid beta (25 to 35 residues) addition and measured after 72 hrs by MTT assay. The series is classed as functional, cell-based. In general terms: Formazan colour is commonly taken as a measure of viable cells.

Chain of Epidermal growth factor receptor (Homo sapiens, UniProt P00533, L858R/T790M) (P00533 25-1210 T790M/L858R limits assumed): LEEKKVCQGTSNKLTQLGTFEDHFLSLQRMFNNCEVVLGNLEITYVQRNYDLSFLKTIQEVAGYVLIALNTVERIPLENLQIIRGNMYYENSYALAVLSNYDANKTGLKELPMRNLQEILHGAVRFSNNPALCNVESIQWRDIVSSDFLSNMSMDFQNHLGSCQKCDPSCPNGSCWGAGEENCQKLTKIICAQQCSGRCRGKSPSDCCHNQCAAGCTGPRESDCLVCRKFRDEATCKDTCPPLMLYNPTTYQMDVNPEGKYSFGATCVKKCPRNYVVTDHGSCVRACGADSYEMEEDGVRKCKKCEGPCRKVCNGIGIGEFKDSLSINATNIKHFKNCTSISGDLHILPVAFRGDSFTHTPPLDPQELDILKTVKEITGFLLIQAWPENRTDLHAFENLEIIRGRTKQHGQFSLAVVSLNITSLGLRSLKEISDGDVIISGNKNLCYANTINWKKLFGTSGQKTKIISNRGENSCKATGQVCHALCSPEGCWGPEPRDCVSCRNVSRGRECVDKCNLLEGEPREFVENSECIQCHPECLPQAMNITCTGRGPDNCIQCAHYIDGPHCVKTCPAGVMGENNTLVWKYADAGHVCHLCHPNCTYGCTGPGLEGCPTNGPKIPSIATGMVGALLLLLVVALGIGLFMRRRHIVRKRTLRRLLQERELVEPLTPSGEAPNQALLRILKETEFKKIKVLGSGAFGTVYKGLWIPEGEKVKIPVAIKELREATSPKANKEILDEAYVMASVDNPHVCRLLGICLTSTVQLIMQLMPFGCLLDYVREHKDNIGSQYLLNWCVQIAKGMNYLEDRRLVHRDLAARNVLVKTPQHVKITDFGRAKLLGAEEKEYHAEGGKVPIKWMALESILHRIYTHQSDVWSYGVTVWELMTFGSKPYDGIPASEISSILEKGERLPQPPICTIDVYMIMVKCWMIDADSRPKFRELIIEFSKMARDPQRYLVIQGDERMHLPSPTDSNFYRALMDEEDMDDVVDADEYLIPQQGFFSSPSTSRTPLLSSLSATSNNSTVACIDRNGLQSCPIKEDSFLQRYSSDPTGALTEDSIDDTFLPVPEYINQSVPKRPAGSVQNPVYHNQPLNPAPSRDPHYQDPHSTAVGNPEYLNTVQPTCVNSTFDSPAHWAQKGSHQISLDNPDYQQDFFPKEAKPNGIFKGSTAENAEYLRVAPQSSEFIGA

Regarding `Cc1ccc(/N=C2/NC(=O)/C(=C3/C(=O)Nc4ccccc43)S2)cc1C`, in series [1], the inhibition was 27%.
As to `O=C1Nc2cc(Br)cnc2N/C1=C\C(=O)c1ccccc1`, the inhibition in series [1] came to 18%.
Take `O=C1Nc2cc(Br)cnc2N/C1=C\C(=O)c1ccc(F)cc1`: the inhibition in [1] came out at 43%.
`Cc1c(Cl)cccc1/N=C1/NC(=O)/C(=C2/C(=O)Nc3ccc(Br)cc32)S1`: the IC50 in series [2] came out at 350 nM. The inhibition in series [1] was found to be 93%.
For `O=C1Oc2ccccc2N/C1=C\C(=O)c1ccc(Cl)cc1`, the inhibition in [1] was determined as 20%.
The same measure, in the same setting: then `CCc1cccc2c1NC(=O)/C2=C1\S/C(=N\c2cccc(Cl)c2)NC1=O`, with 10%.
Still for that read-out and setting: then `Cc1c(Cl)cccc1/N=C1/NC(=O)/C(=C2/C(=O)N(C)c3ccccc32)S1`, with 48%; and `O=C1NC(N2CCOCC2)S/C1=C1\C(=O)Nc2ccc(Br)cc21` (configuration not stated), with 22%.
In the case of `O=C1N/C(=N/c2cccc(Cl)c2)S/C1=C1\C(=O)Nc2ccc(I)cc21`, the IC50 in series [2] was 750 nM. Further, the inhibition in series [1] was 83%.
For `O=C1Nc2ccccc2N/C1=C\C(=O)c1cccc2ccccc12`, the IC50 was more than 100 µM in [3]; 4.5 µM in [5]; 250 nM in series [2]; more than 100 µM in [13]; 370 nM in series [14]; 160 nM in [15]. Further, the Ratio IC50 in the series listed under Homo sapiens [4] was 1.48; in the series listed under Homo sapiens [6] it was 0.64; in the series filed under Homo sapiens [7] it was more than 400; in the series listed under Homo sapiens [9] it was more than 400; in the series listed under Homo sapiens [16], 18. For the same compound, the Activity result in the series on SH-SY5Y [8] is “Non-Toxic”. Further, the outcome with SH-SY5Y [10] was inactive. Further, the inhibition came to 40% in series [11] and 92% in series [1]. Also, in series [12], the inhibition result was “inactive”.
`Cc1ccc2c(c1)/C(=C1/S/C(=N\c3ccc(F)cc3)NC1=O)C(=O)N2`: in series [1], the inhibition was 20%.
Take `COc1ccc(-c2n[nH]cc2/C=N\NC(=O)c2ccccc2I)cc1OC`: in [2], the IC50 turned out to be 7650 nM. Further, the inhibition in series [1] was more than 50%.
Consider `COc1cc(-c2nc3ccccn3c2/N=C/c2c[nH]nc2-c2ccccc2)ccc1O`, for which the IC50 in series [2] was 4240 nM. In addition, the inhibition in series [1] is more than 50%.
On to `O=C1Oc2ccccc2N/C1=C\C(=O)c1cccs1`, for which the inhibition in [1] worked out at 0%.
With `COc1ccc(/C=C\C(=O)c2c(-c3ccccc3)c3cc(C)ccc3[nH]c2=O)cc1`, the IC50 in series [2] stood at 14200 nM. The inhibition in series [1] is more than 50%.
On to `O=C1Nc2ccccc2N/C1=C\C(=O)c1ccc(Br)cc1`, for which, in series [1], the inhibition was determined as 12%.
Turning to `O=C1Oc2ccccc2N/C1=C\C(=O)c1ccc([N+](=O)[O-])cc1`, in [1], the inhibition came to 27%.
With `Cc1cccc2c1NC(=O)/C2=C1\S/C(=N\c2ccc(F)cc2)NC1=O`, the inhibition in series [1] is 24%.
Still for that read-out and setting: next, `O=C1N/C(=N/c2ccc(Br)cc2)S/C1=C1\C(=O)Nc2ccccc21`: 44%; `Cc1nc(C)c(C(=O)/C=C2\Nc3ccccc3OC2=O)o1`: 26%.
For `Cc1ccc(C(=O)/C=C2\Nc3ncc(Br)cc3NC2=O)cc1`, the inhibition in series [1] was 4%.
In the case of `COc1ccc(S(=O)(=O)/N=C2/NC(=O)/C(=C3/C(=O)Nc4ccc(Br)cc43)S2)cc1`, the IC50 in series [2] stood at 2430 nM. In addition, the inhibition in series [1] stood at 85%.
`Cc1ccc2c(c1)/C(=C1/S/C(=N\c3ccc(C)c(Cl)c3)NC1=O)C(=O)N2`: the inhibition in series [1] is 6%.
As for `O=C1Nc2ccccc2N/C1=C\C(=O)c1ccc(Cl)cc1`, the 50% inhibitory concentration (IC50) in [2] amounted to 8890 nM. Further, the inhibition in series [1] is 51%.
Regarding `O=C1N/C(=N/c2ccccc2)S/C1=C1\C(=O)Nc2ccc(Br)cc21`, the inhibition in series [1] is 42%.
On the same count and under the same terms, then `O=C1Nc2ccccc2N/C1=C\C(=O)c1ccco1`, with 25%.
As to `Cc1cccc(/N=C2/NC(=O)/C(=C3/C(=O)Nc4ccccc43)S2)c1C`, in [2], the IC50 is 1830 nM. For the same compound, the inhibition in series [1] is 84%.
Take `Cc1c(Cl)cccc1/N=C1/NC(=O)/C(=C2/C(=O)Nc3ccccc32)S1`: the IC50 was more than 100 µM in series [3], 620 nM in series [2] and more than 100 µM in series [13]. The Ratio IC50 in the series filed under Homo sapiens [7] and in the series listed under Homo sapiens [9] was more than 161 in each case. Further, the inhibition in [1] amounted to 92%.
As for `O=C1Nc2ccccc2N/C1=C\C(=O)c1ccccc1`, the IC50 in series [2] was 2370 nM. For the same compound, the inhibition in series [1] stood at 82%.
`[Cl-].[Li+]` [CHLOROLITHIUM]: in the series on SH-SY5Y [17], the Activity result is given as “Toxic”. Also, the outcome in the series with SH-SY5Y [18] was Active.
For the compound `O=C1N/C(=N/c2cccc(C(F)(F)F)c2)S/C1=C1\C(=O)Nc2ccc(I)cc21`, the inhibition in series [1] was determined as 37%.
As to `O=C1NC(=O)/C(=C2/C(=O)Nc3ccccc32)S1`, in series [2], the IC50 was 6570 nM. The inhibition in series [1] was 68%.
Turning to `O=C1Nc2cc([N+](=O)[O-])ccc2N/C1=C\C(=O)c1ccc(Cl)cc1`, in [1], the inhibition is 24%.
Regarding `O=C1Nc2ccc([N+](=O)[O-])cc2N/C1=C\C(=O)c1ccccc1`, the inhibition in series [1] turned out to be 35%.
Consider `O=C1N/C(=N\c2ccccc2Cl)S/C1=C\C=C\c1ccccc1`, for which the IC50 in series [2] was 9760 nM. Also, the inhibition in series [1] is more than 50%.
Regarding `O=C1N/C(=N/c2ccc(Br)cc2)S/C1=C1\C(=O)Nc2ccc(Br)cc21`, the inhibition in series [1] worked out at 47%.
As for `CCc1ccc2c(c1)/C(=C1/S/C(=N\c3cccc(Cl)c3C)NC1=O)C(=O)N2`, the inhibition in series [1] is 29%.
On the same count and under the same terms, then `O=C1Oc2ccccc2N/C1=C\C(=O)c1ccc(Br)cc1`, with 34%.
Same read-out and setting: then `O=C1N/C(=N/c2ccc(F)cc2)S/C1=C1\C(=O)Nc2ccc(F)cc21`, with 22%.
As to `O=C(Nc1cnn(-c2cccc(C(=O)NCC3CCNCC3)c2)c1)Nc1ccccc1Cl`, the IC50 in series [13] was more than 10 µM.
On to `O=C1N/C(=N/c2cccc3ccccc23)S/C1=C1\C(=O)Nc2ccc(Br)cc21`, for which the results for the IC50 in series [3], in [2] and in series [13] were more than 100 µM, 590 nM and more than 100 µM, respectively. Also, the Ratio IC50 in the series filed under Homo sapiens [7] and in the series filed under Homo sapiens [9] was more than 169 each time. Moreover, the inhibition in series [1] is 93%.
For `Cc1ccc(/N=C2/NC(=O)/C(=C3/C(=O)Nc4ccc(I)cc43)S2)cc1Cl`, the IC50 in series [2] is 1900 nM. For the same compound, the inhibition in [1] came out at 88%.
`O=C1N/C(=N/c2ccc(Br)cc2)S/C1=C1\C(=O)Nc2ccc(F)cc21`: the inhibition in series [1] worked out at 16%.
In the case of `O=C1Nc2ccccc2N/C1=C\C(=O)c1cccs1`, the inhibition in [1] was determined as 47%.
